Values joined by “and” are separate entries in the source; they are usually repeats but may differ in a detail not shown here. Identical values can stand only once.
Experiments:
[1] = Powder Stain Prevention Model (PSPM)
Text: The Powder Stain Prevention Model (PSPM) is a screening technique where hydroxyapatite powder (HAP) is used as a substrate for stain accumulation. The general purpose of this technique is to illustrate and quantify the stain prevention ability or staining potential of chemical agents used in oral care. Hydroxyapatite powder provides a large surface area to which tea chromogens adsorb. Pretreatment of HAP with oral care actives, either in rinse or dentifrice form, results in different levels of stain accumulation depending upon the ability of the actives to block or enhance the binding of these chromogens onto HAP surface. The magnitude of stain can then be quantified by image analysis.
Tube is vortexed for 30 seconds to fully suspend HAP in treatment followed by centrifugation at 15,000 rpm for 15 mins. After centrifugation, supernatant is decanted and pellet redistributed by adding 25 ml of water, vortexing, centrifuging at 15,000 rpm for 15 mins, and decanting-making sure pellet breaks up during vortexing. The wash cycle is repeated two more times.
After final water wash, 20 ml of filtered tea (1 Lipton tea bag per 100 ml of hot water seeped for 5 minutes, filtered and used at 50° C.) is added to each pellet and vortexed for 30 seconds to fully suspend HAP in tea. Powder suspension is centrifuged at 15,000 rpm for 15 mins and decanted. About 25 ml of water is added to the tube, vortexed and then centrifuging at 15,000 rpm for 15 mins. The liquid is decanted and wash cycle is repeated 2 more times.
Vortex pellet in approximately 10 ml of water until fully suspended followed by filtering under vacuum onto a Millipore filter disk (Membrane Filters 4.5 μm, 47 mm Catalog #HAWP04700, Millipore Corporation, Bedford, Mass.). Prepare a control disk using. −200 mg of untreated, unstained HAP. Filter disks are then dried overnight in flat position and then laminated.
Whitelight system: HAP disk (untreated HAP control and HAP treatments) is placed in a stabilized sample holder. The color is measured using a digital camera having a lens equipped with a polarizer filter (Camera model no. CANON EOS 70D from Canon Inc., Melville, N.Y. with NIKON 55 mm micro-NIKKOR lens with adapter). The light system is provided by Dedo lights (model number DLH2) equipped with 150 watt, 24V bulbs model number (Xenophot model number HL X64640), positioned about 30 cm apart (measured from the center of the external circular surface of one of the glass lens through which the light exits to the other) and aimed at a 45 degree angle such that the light paths meet on the HAP disk. Image analysis is performed using Whitelight with Ultragrab, Optimas and Giant Imaging software.
Usual controls for a single polymer PSPM are water as a treatment followed by exposure to tea, and water without exposure to tea. […]

[2] = Powder Stain Removal Model (PSRM)
Text: The Powder Stain Removal Model (PSRM) is a screening technique where hydroxyapatite powder (HAP) is used as a substrate for stain accumulation. The purpose of this technique is to illustrate and quantify the stain removal properties of chemical agents used in oral care. Hydroxyapatite powder provides a large surface area to which tea chromogens adsorb. […] The magnitude of stain removal can then be quantified by image analysis. A trial of this model can be completed in three days. Steps involved in PSRM are described below.
Prepare large batch of tea stain HAP by stirring 10 g of HAP powder in 200 ml of filtered tea for 5 minutes. Divide into centrifuge tubes and centrifuge at 15,000 rpm for 15 mins. Wash pellet by adding in 25 ml of water, vortexing, centrifuging at 15,000 rpm for 15 mins, and pipet out liquid. Make sure pellet breaks up during vortexing. Repeat wash.
Place centrifuge tubes in convection oven (55-65° C.) overnight to dry stained HAP. Once dried, pool stained HAP together and grind to a fine powder with pestle and mortar.
Tube is vortexed for I minute to fully suspend HAP in treatment followed by centrifugation at 15,000 rpm for 15 mins. After centrifugation, supernatant is decanted and pellet redistributed by adding 25 ml of water, vortexing, centrifuging at 15,000 rpm for 15 mins, and decanting-making sure pellet breaks up during vortexing. The wash cycle is repeated one more time.
Vortex pellet in approximately 10 ml of water until fully suspended followed by filtering under vacuum onto a Millipore filter disk (Membrane Filters 4.5 μm, 47 mm Catalog #HAWP04700, Millipore Corporation, Bedford, Mass.). Prepare a control disk using=200 mg of untreated, stained HAP. Filter disks are then dried overnight in flat position and then laminated.
Whitelight system: HAP disk (untreated HAP control and HAP treatments) is placed in a stabilized sample holder. The color is measured using a digital camera camera having a lens equipped with a polarizer filter (Camera model no. CANON EOS 70D from Canon Inc., Melville, N.Y. with NIKON 55 mm micro-NIKKOR lens with adapter). The light system is provided by Dedo lights (model number DLH2) equipped with 150 watt, 24V bulbs model number (Xenophot model number HL X64640), positioned about 30 cm apart (measured from the center of the external circular surface of one of the glass lens through which the light exits to the other) and aimed at a 45 degree angle such that the light paths meet on the HAP disk. Image analysis is performed using Whitelight with Ultragrab, Optimas and Giant Imaging software.
Usual controls for a single polymer PSRM are water as a treatment followed by exposure to tea, and water without exposure to tea. Additionally, pyrophosphate and polyphosphate are run as internal controls. […]

O=P(O)(O)OP(=O)(O)O [Pyrophosphate]
Delta L [1]: 16.3
PSPM (ΔL) [1]: 12.2-16.0
PSPM ΔL [1]: 18.0 and 14.3
Delta L [2]: 14.2
PSRM (ΔL) [2]: 13.0-18
PSRM ΔL [2]: 12.4 and 13.5

From patent US11046798B2, “Phosphono-phosphate containing compounds and polymers” (The Procter & Gamble Company, priority 2017, dated 2021)
